The text below walks through data of a melting point compilation (Tetko et al.).

Bounds are passed on as bounds.

For orientation: melting point means the temperature of the solid-liquid transition.

In the case of `N#Cc1cc(I)c(O)c([N+](=O)[O-])c1`, the melting point was 138 °C.

Regarding `COc1ccc(CC#N)cc1F`, the melting point was 48 °C.

In turn, `CC(=O)N1CCSC1C(=O)NN` (configuration not stated) gave a melting point of 193 to 196 °C.

In turn, `O=C(O)c1ccc([N+](=O)[O-])c(F)c1` showed a melting point of 175 °C.

For `Cc1c2c(c(C)c3c1C(=O)C3)C(=O)C2`, the melting point fell in the range of 237 to 238 °C.

In the case of `Fc1ccc(-c2cc3ccccc3[nH]2)cc1`, the melting point lay in the range of 190 to 192 °C.

In the case of `COc1ccc(-c2ccnc(S)n2)cc1`, the melting point is 202 °C.

`Clc1ccc2nc(Cl)c(Cl)nc2c1` returned a melting point of 143 to 148 °C.

`CC(=O)c1cccc(-c2ccccc2)c1` came in with a melting point of 36 °C.

`C=C1CCC(O)CC1=CC=C1CCCC2(C)C1CCC2C(C)CCCC(C)C` (configuration not stated) registered a melting point of 84.5 °C.

The compound `O=CC(F)(F)C(F)(F)C(F)(F)C(F)(F)C(F)(F)C(F)(F)C(F)(F)C(F)(F)C(F)(F)C(F)(F)F` showed a melting point of 70 to 72 °C.

`Cc1ccc(C)n1-c1ccsc1C(=O)NN` registered a melting point of 135 to 136 °C.

On to `Brc1cc(Br)c(Oc2c(Br)cc(Br)c(Br)c2Br)cc1Br`, for which the melting point lay in the range of 171 to 173 °C.

For the compound `CCCCCC(N)=O`, the melting point came to 101 °C.

Compound `CC1(c2ccccc2)CC(C(=NNC(N)=S)c2cc3ccccc3o2)C1` (configuration not stated) registered a melting point of 205 to 207 °C.

For the compound `Cc1nn(-c2ccccc2)nc1CBr`, the melting point was 72 to 73 °C.

Consider `CN(C)CCN1C(=O)c2ccccc2N(C)c2ccccc21`, for which the melting point worked out at 116 °C.

For the compound `O=C(O)c1c(F)cnc(F)c1F`, the melting point was 110 °C.

`c1ccc(-c2cc(N3CCCC3)cc(N3CCCC3)c2)cc1`: the melting point worked out at 174 °C.

`CC(=O)Oc1ccc2c3c1OC1C(OC(C)=O)C=CC4C(C2)N(C)CCC341` (configuration not stated): the melting point amounted to 173 °C.

For the compound `CCOC(=O)NNC(=O)Nc1ccc(Cl)c(Cl)c1`, the melting point was 207 °C.

Regarding `O=C(O)c1ccc(OC(F)(F)C(F)F)cc1`, the melting point was 176 to 177 °C.

Turning to `CC(=O)Nc1ccc(F)cc1Cl`, the melting point fell in the range of 117 to 120 °C.

Compound `Clc1cccc2c(-c3ccccc3)c(-c3ccccc3)[nH]c12` registered a melting point of 97 to 98 °C.

Regarding `CCCOC1CCC2(C)C(CCC3C2CCC2(C)C(OCCC)CCC32)C1` (configuration not stated), the melting point was 112 to 135 °C.

As for `O=Cc1cccc(N2CCOCC2)n1`, the melting point lay in the range of 93 to 95 °C.

For `O=C(Cc1ccccc1)c1ccc2c3c(ccc([N+](=O)[O-])c13)CC2`, the melting point stood at 189 °C.

`OCCN1CCN(c2ncc(Cl)cc2C(F)(F)F)CC1` gave a melting point of 58 to 59 °C.

`Cc1nn(C)c(Cl)c1N=Nc1ccccc1`: the melting point fell in the range of 44 to 46 °C.

`Cc1ccc(O)c(C(O)c2ccccc2)c1` (configuration not stated) displayed a melting point of 103 °C.

In turn, `Cc1nc([N+](=O)[O-])cn1CCC(N)=NO` registered a melting point of 207 °C.

Turning to `CC(C)(C)OC(=O)N1CCN(C(=O)OCC2c3ccccc3-c3ccccc32)C(C(=O)O)C1` (configuration not stated), the melting point lay within 163 to 166 °C.

As for `Cn1nc(N)c2c(=O)cc[nH]c21`, the melting point lay in the range of 215 to 220 °C.

The compound `Cc1cc2c(s1)=Nc1ccccc1NC=2N1CCN(C)CC1` showed a melting point of 195 °C.

The compound `Cn1c(=O)c(C2=NNC(=O)C2=C2c3ccccc3-c3ccccc32)c(O)c2ccccc21` returned a melting point of 295 °C.

The compound `N#Cc1ccc(Cn2ccnc2)cc1` displayed a melting point of 103 to 104 °C.

`CNCCCC12CCC(c3ccccc31)c1ccccc12` yielded a melting point of 92 °C.

`CCCCCCCCCCCCCC(=O)Oc1ccc(N=Cc2cccnc2)cc1` gave a melting point of 82.7 °C.

In turn, `COc1cc(C=O)ccc1OCc1c(F)cccc1Cl` showed a melting point of 124 to 126 °C.

Compound `Oc1cccc(-c2ccccc2)c1` returned a melting point of 78 °C.

`COC(=O)C(NC(=O)OCc1ccccc1)P(=O)(OC)OC` (configuration not stated): the melting point came to 78 °C.

For the compound `CC(=O)C1=Cc2ccccc2C1`, the melting point was found to be 122 °C.

With `O=c1c(O)c(-c2ccc(O)cc2)oc2cc(O)cc(O)c12`, the melting point was 277 °C.

In turn, `Cc1c(C)c(C)c(C#N)c(C)c1C` displayed a melting point of 159 °C.

The compound `COc1ccc(-c2ccc(S(=O)(=O)NC(C(=O)O)C(C)C)cc2)cc1` (configuration not stated) yielded a melting point of 178 °C.

For the compound `CCCCC(CC)COC(=O)CCCCCCCCC(=O)OCC(CC)CCCC` (configuration not stated), the melting point was -48 °C.

In turn, `O=C(/C=C/Nc1ccccc1)c1ccc2c(c1)CCCC2` showed a melting point of 175 °C.

`CN(C)c1ccc(/C=C(/C#N)C(N)=S)cc1` gave a melting point of 189 °C.

As for `O=C(/C(=N/Nc1ccc(Cl)cc1Cl)S(=O)(=O)c1ccccc1)c1cccc2ccccc12`, the melting point was determined as 162 °C.

Compound `O=C(O)CCC(=O)CCC(=O)O` had a melting point of 142 to 144 °C.

`C=C[Si](c1ccccc1)(c1ccccc1)c1ccccc1` came in with a melting point of 63 to 70 °C.

In turn, `CCCCCCCCCCCCCC(=O)OC(C)C` gave a melting point of 3 °C.

Regarding `CC1=CCCC1`, the melting point was -126 °C.

`ClCc1cc(Cl)cc(Cl)c1` came in with a melting point of 36 °C.

`CC(=O)c1ccc(NC(=O)c2ccccc2)c(C(=O)c2ccccc2)c1` came in with a melting point of 177 °C.

Compound `C[Si](C)(C)C#N` registered a melting point of 11 °C.

Consider `Cc1c(C#N)[nH]c2ccccc12`, for which the melting point lay in the range of 102 to 104 °C.

For `CC(C)CCOc1ccc(NC(=S)Nc2ccc(OCCC(C)C)cc2)cc1`, the melting point amounted to 146 °C.

On to `COc1ccc(N=C(S)SC)cc1`, for which the melting point was in the range of 111 to 113 °C.

Compound `CCOC(=O)c1c(C)cc(O)nc1O` returned a melting point of 219 °C.

Compound `Nc1ccc(N2CCOCC2)c(Cl)c1` displayed a melting point of 102 to 104 °C.

Consider `Cc1ccc(C(N)=O)cn1`, for which the melting point was determined as 197 °C.

With `O=Cc1cc(Cl)cc(Cl)c1Cl`, the melting point was 72 to 76 °C.

With `CC1(C)c2ccccc2N(Cc2ccccc2)C12C=Cc1cc([N+](=O)[O-])ccc1O2` (configuration not stated), the melting point lay within 158 to 160 °C.

In turn, `Cc1nc(-c2ccc(Cl)cc2)sc1C(=O)Cl` had a melting point of 180 to 183 °C.

`CCC1(c2ccccc2)C(=O)NCNC1=O` returned a melting point of 281 °C.

As to `C/C(=N\c1cccc2cccc(N)c12)c1c(O)c2ccccc2n(-c2ccccc2)c1=O`, the melting point was > 300 °C.

Regarding `NCCCCCC(=O)O`, the melting point was determined as 211 °C.

Compound `O=C(O)C=CC(=O)O` came in with a melting point of 295 to 300 °C.

In turn, `O=C(O)C=Cc1ccsc1` came in with a melting point of 155 to 156 °C.

Take `c1csc(P(c2cccs2)c2cccs2)c1`: the melting point was 29 to 30 °C.

With `Cc1ccc2nc(C)[nH]c2c1`, the melting point stood at 203 °C.

`O=C(O)c1ccc(Cl)cc1Cl` yielded a melting point of 164 °C.

As for `Cc1oc(-c2ccccc2)nc1CO`, the melting point is 117 to 118 °C.

With `COc1ccc(/C=C(\Oc2ccccc2)c2nc3ccccc3s2)cc1`, the melting point came to 151 °C.

Take `O=C(Nc1cccnc1Cl)c1ccc(F)cc1`: the melting point is 140 to 142 °C.

`COc1ccccc1/C=C(\C(N)=O)c1nc2ccccc2s1` gave a melting point of 174 °C.

`COc1ccc(C(=O)Cc2ccccc2)cc1OC` returned a melting point of 87 to 88 °C.

Regarding `ClC1=C(Cl)C(Cl)(C2(Cl)C(Cl)=C(Cl)C(Cl)=C2Cl)C(Cl)=C1Cl`, the melting point worked out at 122 °C.

Consider `Nc1ccccc1Cn1cncn1`, for which the melting point was in the range of 56 to 57 °C.

`Nc1c(C(=O)O)cccc1[N+](=O)[O-]` showed a melting point of 211 °C.

The compound `Cc1nc(Nc2ncc(C(=O)Nc3c(C)cccc3Cl)s2)cc(N2CCN(CCO)CC2)n1` gave a melting point of 283 °C.

With `O=C(O)c1ccc(-c2ccc(Cl)cc2)o1`, the melting point is 198 to 201 °C.

`O=C(Cl)c1ccc2c(c1)OCCO2` gave a melting point of 100 to 101 °C.

Regarding `Cc1cc2ccccc2cc1C`, the melting point is 105 °C.

`O=C(C1=NOC2C(=O)N(c3ccc(Cl)cc3)C(=O)C12)c1ccc2ccccc2c1` (configuration not stated): the melting point was found to be 121 °C.

`O=C=Nc1ccc(CCl)cc1` returned a melting point of 33 °C.

`COC(=O)C1=C(C)NC(C)=C(C(=O)OC)C1c1ccccc1[N+](=O)[O-]` yielded a melting point of 173 °C.

The compound `CC(=O)N(c1ccccc1)c1cc(N(C(C)=O)c2ccccc2)c([N+](=O)[O-])cc1[N+](=O)[O-]` returned a melting point of 233 °C.

In the case of `ON=C(c1cccs1)c1cccs1`, the melting point was in the range of 134 to 136 °C.

The compound `COC(=O)c1ccccc1OCc1ccccc1` gave a melting point of 47 °C.

`Cc1ccc(N=C=S)c([N+](=O)[O-])c1` displayed a melting point of 65 °C.

`NC(=S)COc1ccccc1Cl` displayed a melting point of 116 to 117 °C.

`OCc1ccc(-c2ccco2)cc1` registered a melting point of 85 to 86 °C.

The compound `Cn1c(N)c(C=O)c(=O)n(C)c1=O` gave a melting point of 199 to 201 °C.

The compound `CSc1ccc(N=C=S)cc1` had a melting point of 50 °C.

`O=C1Cc2cc([N+](=O)[O-])ccc21`: the melting point amounted to 76 °C.

As to `C#CC1(O)CCC2C3CCC4=CCCCC4C3C(=C)CC21CC` (configuration not stated), the melting point stood at 110 °C.

`O=C(c1ccc(Cl)cc1)c1noc(-c2ccc(Cl)cc2)c1S(=O)(=O)c1ccccc1` yielded a melting point of 147 °C.

In the case of `CCCCCCCCCCCC(=O)OOC(=O)CCCCCCCCCCC`, the melting point lay in the range of 53 to 57 °C.

`N#CC(=Cc1ccc(O)cc1)C(=O)O` displayed a melting point of 250 to 253 °C.

`CC(C)(C)OC(=O)NCc1ccc(C=O)cc1` showed a melting point of 83 to 84 °C.

Compound `Cc1cncc(Oc2cccc(Br)c2)n1` came in with a melting point of 38 to 39.5 °C.

In turn, `CC12CCC(C(C(O)c3ccccc3)OC1=O)C2(C)C` (configuration not stated) came in with a melting point of 156 °C.

For the compound `CC(=NNc1ccccc1)C(=O)c1cc(C(=O)C(C)=NNc2ccccc2)c([N+](=O)[O-])cc1[N+](=O)[O-]`, the melting point turned out to be 234 °C.

Consider `Cc1ccc2c(c1)CCCC2`, for which the melting point is -40 °C.

Turning to `CCOC(=O)C(C#N)c1cc(Cl)c([N+](=O)[O-])cc1[N+](=O)[O-]` (configuration not stated), the melting point was 109 °C.
